Reference: patent US12331041B2, “GLP-1 receptor agonists and uses thereof” (Pfizer Inc., priority 2018, dated 2025)
pEC50: −log10 of the molar value. Where a name gives a salt, the structure may show the parent alone.

Experiments:
human GLP-1R [1] = biological target: T1, human GLP-1R (Homo sapiens, UniProt P43220, G168S); experiment: CHO GLP-1R Clone H6 - Assay 1 (HTRF cAMP agonist assay); type: cell-based; settings: for pEC50: CHO Clone H6, high GLP-1R density, cAMP, geometric mean; for Emax / Assay 1 Emax (%): CHO Clone H6, relative to saturating full agonist GLP-1 7-36 (1 μM), arithmetic mean
T1 construct: expressed in transfected cells
Method: GLP-1R-mediated agonist activity was determined with a cell-based functional assay utilizing an HTRF (Homogeneous Time-Resolved Fluorescence) cAMP detection kit (cAMP HI Range Assay Kit; CisBio cat #62AM6PEJ) that measures cAMP levels in the cell. The method is a competitive immunoassay between native cAMP produced by the cells and exogenous cAMP labeled with the dye d2, The tracer binding is visualized by a mAb anti-cAMP labeled with Cryptate. The specific signal (i.e. energy transfer) is inversely proportional to the concentration of cAMP in either standard or experimental sample.
The human GLP-1R coding sequence (NCBI Reference Sequence NP_002053.3, including naturally-occurring variant Gly168Ser) was subcloned into pcDNA3 (Invitrogen) and a cell line stably expressing the receptor was isolated (designated Clone H6).
(§1) A 1 mL sample of the cell suspension in growth media was counted on a Becton Dickinson ViCell to determine cell viability and cell count per mL. The remaining cell suspension was then adjusted with growth media to deliver 2000 viable cells per well using a Matrix Combi Multidrop reagent dispenser, and the cells were dispensed into a white 384 well tissue culture treated assay plate (Corning 3570). The assay plate was then incubated for 48 hours at 37° C. in a humidified environment in 5% carbon dioxide.
Varying concentrations of each compound to be tested (in DMSO) were diluted in assay buffer (HBSS with Calcium/Magnesium (Lonza/BioWhittaker cat #10-527F)/0.1% BSA (Sigma Aldrich cat #A7409-1L)/20 mM HEPES (Lonza/BioWhittaker cat #17-737E) containing 100 μM 3-isobutyl-1-methylxanthin (IBMX; Sigma cat #15879). The final DMSO concentration is 1%.
After 48 hours, the growth media was removed from the assay plate wells, and the cells were treated with 20 μL of the serially diluted compound in assay buffer for 30 minutes at 37° C. in a humidified environment in 5% carbon dioxide. Following the 30 minute incubation, 10 μL of labeled d2 cAMP and 10 μL of anti-cAMP antibody (both diluted 1:20 in cell lysis buffer; as described in the manufacturer's assay protocol) were added to each well of the assay plate. The plates were then incubated at room temperature and after 60 minutes, changes in the HTRF signal were read with an Envision 2104 multi-label plate reader using excitation of 330 nm and emissions of 615 and 665 nm. Raw data were converted to nM cAMP by interpolation from a cAMP standard curve (as described in the manufacturer's assay protocol) and the percent effect was determined relative to a saturating concentration of the full agonist GLP-17-36 (1 μM) included on each plate. EC50 determinations were made from agonist dose-response curves analyzed with a curve fitting program using a 4-parameter logistic dose response equation.

human GLP-1R [2] = biological target: T2, human GLP-1R (Homo sapiens, UniProt P43220, L260F); experiment: CHO GLP-1R Clone C6 - Assay 2 (HTRF cAMP agonist assay); type: cell-based; settings: for pEC50: CHO clone C6, low GLP-1R density, cAMP, geometric mean; for Emax / Assay 2 Emax (%): CHO clone C6, relative to saturating full agonist GLP-1 (1 μM), arithmetic mean
T2 construct: expressed in transfected cells; host or cells: CHO Flp-In T-REx, clonal line C6 (pcDNA5-FRT-TO)
Method: GLP-1R-mediated agonist activity was determined with a cell-based functional assay utilizing an HTRF (Homogeneous Time-Resolved Fluorescence) cAMP detection kit (cAMP HI Range Assay Kit; Cis Bio cat #62AM6PEJ) that measures cAMP levels in the cell. The method is a competitive immunoassay between native cAMP produced by the cells and exogenous cAMP labeled with the dye d2. The tracer binding is visualized by a mAb anti-cAMP labeled with Cryptate. The specific signal (i.e. energy transfer) is inversely proportional to the concentration of cAMP in either a standard or an experimental sample.
The human GLP-1R coding sequence (NCBI Reference Sequence NP_002053.3, including naturally-occurring variant Leu260Phe) was subcloned into pcDNA5-FRT-TO and a clonal CHO cell line stably expressing a low receptor density was isolated using the Flp-In™ T-Rex™ System, as described by the manufacturer (ThermoFisher).
as §1, with “deliver 1600” for “deliver 2000”, “48 h” for “48 hours”, “environment (95% O2,” for “environment in”, “5% CO2)” for “5% carbon dioxide.”
Varying concentrations of each compound to be tested (in DMSO) were diluted in assay buffer [HBSS with Calcium/Magnesium (Lonza/BioWhittaker cat #10-527F)/0.1% BSA (Sigma Aldrich cat #A7409-1L)/20 mM HEPES (Lonza/BioWhittaker cat #17-737E)] containing 100 μM 3-isobutyl-1-methylxanthin (IBMX; Sigma cat #15879). The final DMSO concentration in the compound/assay buffer mixture is 1%.
After 48 h, the growth media was removed from the assay plate wells, and the cells were treated with 20 μL of the serially diluted compound in assay buffer for 30 min at 37° C. in a humidified environment (95% O2, 5% CO2). Following the 30 min incubation, 10 μL of labeled d2 cAMP and 10 μL of anti-cAMP antibody (both diluted 1:20 in cell lysis buffer; as described in the manufacturer's assay protocol) were added to each well of the assay plate. The plates were then incubated at room temperature and after 60 minutes, changes in the HTRF signal were read with an Envision 2104 multi-label plate reader using excitation of 330 nm and emissions of 615 and 665 nm. Raw data were converted to nM cAMP by interpolation from a cAMP standard curve (as described in the manufacturer's assay protocol) and the percent effect was determined relative to a saturating concentration of the full agonist GLP-1 (1 μM) included on each plate. EC50 determinations were made from agonist dose response curves analyzed with a curve fitting program using a 4-parameter logistic dose response equation.

T2 sequence (P43220 24-463 L260F): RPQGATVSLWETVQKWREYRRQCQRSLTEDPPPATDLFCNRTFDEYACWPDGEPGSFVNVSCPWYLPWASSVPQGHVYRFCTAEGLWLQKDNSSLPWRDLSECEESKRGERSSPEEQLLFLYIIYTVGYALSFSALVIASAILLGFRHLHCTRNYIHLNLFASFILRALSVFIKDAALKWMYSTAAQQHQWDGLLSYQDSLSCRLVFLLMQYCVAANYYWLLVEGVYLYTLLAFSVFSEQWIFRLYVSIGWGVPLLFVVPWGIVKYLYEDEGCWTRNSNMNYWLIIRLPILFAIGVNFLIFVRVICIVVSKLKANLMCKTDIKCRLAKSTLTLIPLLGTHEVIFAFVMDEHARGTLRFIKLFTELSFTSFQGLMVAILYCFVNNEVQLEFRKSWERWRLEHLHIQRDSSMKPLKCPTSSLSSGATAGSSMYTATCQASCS
T1 sequence (P43220 24-463 G168S): as the sequence (P43220 24-463 L260F) above, with G145S, F237L counted along it

| Structure (SMILES) | pEC50 (human GLP-1R [1]) | Emax (human GLP-1R [1]) | pEC50 (human GLP-1R [2]) | Emax (human GLP-1R [2]) | Assay 1 Emax (%) (human GLP-1R [1]) | Assay 2 Emax (%) (human GLP-1R [2]) |
| --- | --- | --- | --- | --- | --- | --- |
| N#Cc1ccc(COc2nc(N3CCC4(CC3)CC4c3nc4ccc(C(=O)O)cc4n3C[C@@H]3CCO3)c(F)cc2F)c(F)c1 (mixture of isomers) [Example 56, Ammonium 2-(6-{6-[(4-cyano-2-fluorobenzyl)oxy]-3,5-difluoropyridin-2-yl}-6-azaspiro[2.5]oct-1-yl)-1-[(2S)-oxetan-2-ylmethyl]-1H-benzimidazole-6-carboxylate] | 9.42 | 80% | 8.38 | 90% |  |  |
| N#Cc1ccc(COc2cccc(N3CCC4(CC3)CC4c3nc4ccc(C(=O)O)cc4n3CC3CCO3)n2)c(F)c1 (single isomer, unassigned) [Example 35] | 6.48 | 85% | 4.89 | 100% |  |  |
| N#Cc1ccc(COc2cccc(N3CCC4(CC3)CC4c3nc4ccc(C(=O)O)cc4n3CC3CCO3)n2)c(F)c1 (single isomer, unassigned) [Example 36] | 9.32 |  | 7.82 |  | 83% | 90% |
| O=C(O)c1ccc2nc(C3CC34CCN(c3nc(OCc5ccc(Cl)cc5F)ncc3F)CC4)n(CCn3cncn3)c2c1 (single isomer, unassigned) [Example 41, 2-(6-{2-[(4-chloro-2-fluorobenzyl)oxy]-5-fluoropyrimidin-4-yl}-6-azaspiro[2.5]oct-1-yl)-1-[2-(1H-1,2,4-triazol-1-yl)ethyl]-1H-benzimidazole-6-carboxylic acid, trifluoroacetate salt, from P7] | 8.12 | 84% | 6.89 | 96% |  |  |
| COCCn1c(C2CC23CCN(c2cccc(OCc4ccc(Cl)cc4F)n2)CC3)nc2ncc(C(=O)O)cc21 (single isomer, unassigned) [Example 49, 2-(6-{6-[(4-chloro-2-fluorobenzyl)oxy]pyridin-2-yl}-6-azaspiro[2.5]oct-1-yl)-1-(2-methoxyethyl)-1H-imidazo[4,5-b]pyridine-6-carboxylic acid, ENT-2] | 7.74 |  | 6.54 | 87% | 75% |  |
| N#Cc1ccc(COc2ccc(F)c(N3CCC4(CC3)CC4c3nc4ccc(C(=O)O)cc4n3CC3CCO3)n2)c(F)c1 (single isomer, unassigned) [Example 55] | 9.48 |  | 8.24 |  | 83% | 82% |
| N#Cc1ccc(COc2nc(N3CCC4(CC3)CC4c3nc4ccc(C(=O)O)cc4n3CC3CCO3)ccc2F)c(F)c1 (single isomer, unassigned; ent-2) [Example 53] | 9.24 |  | 7.85 |  | 83% | 90% |
| O=C(O)c1ccc2nc(CC3CCC(c4cccc(OCc5ccc(Cl)cc5F)n4)CC3)n(C[C@@H]3CCO3)c2c1 (single isomer, unassigned; isomer 1) [Example 79] | < 4.92 |  | < 4.70 |  |  |  |
| O=C(O)c1ccc2nc(CC3CCC(c4cccc(OCc5ccc(Cl)cc5F)n4)CC3)n(C[C@@H]3CCO3)c2c1 (single isomer, unassigned; isomer 2) [Example 80] | 7.92 | 98% | 6.80 | 100% |  |  |
| O=C(O)c1ccc2nc(CN3CCC(c4cccnc4OCc4ccc(Cl)cc4F)CC3)n(C[C@@H]3CCO3)c2c1 [Example 1, Ammonium 2-[(4-{2-[(4-chloro-2-fluorobenzyl)oxy]pyridin-3-yl}piperidin-1-yl)methyl]-1-[(2S)-oxetan-2-ylmethyl]-1H-benzimidazole-6-carboxylate] | 9.00 | 84% | 7.70 | 95% |  |  |
| CCn1cncc1Cn1c(CN2CCC(c3ccnc(OCc4ccc(Cl)cc4F)n3)CC2)nc2ccc(C(=O)O)cc21 [Example 63, 2-[(4-{2-[(4-chloro-2-fluorobenzyl)oxy]pyrimidin-4-yl}piperidin-1-yl)methyl]-1-[(1-ethyl-1H-imidazol-5-yl)methyl]-1H-benzimidazole-6-carboxylic acid] |  |  | 8.00 | 97% |  |  |

Continued, values first:

| pEC50 (human GLP-1R [1]) | Emax (human GLP-1R [1]) | pEC50 (human GLP-1R [2]) | Emax (human GLP-1R [2]) | Assay 1 Emax (%) (human GLP-1R [1]) | Assay 2 Emax (%) (human GLP-1R [2]) | Structure (SMILES) |
| --- | --- | --- | --- | --- | --- | --- |
| 9.15 | 78% | 7.72 | 80% |  |  | O=C(O)c1ccc2nc(C3CC34CCN(c3ncc(F)c(OCc5ccc(Cl)cc5F)n3)CC4)n(CC3CCO3)c2c1 (single isomer, unassigned) [Example 50] |
| 6.33 |  | < 4.70 |  | 71% |  | O=C(O)c1ccc2nc(C3CC34CCN(c3ncc(F)c(OCc5ccc(Cl)cc5F)n3)CC4)n(CC3CCO3)c2c1 (single isomer, unassigned) [Example 51] |
| 7.20 | 76% | 5.47 | 93% |  |  | N#Cc1ccc(COc2ccc(F)c(N3CCC4(CC3)CC4c3nc4ccc(C(=O)O)cc4n3CC3CCO3)n2)c(F)c1 (single isomer, unassigned) [Example 54] |
| 7.00 | 74% | 5.19 | 100% |  |  | N#Cc1ccc(COc2nc(N3CCC4(CC3)CC4c3nc4ccc(C(=O)O)cc4n3CC3CCO3)ccc2F)c(F)c1 (single isomer, unassigned; ent-1) [Example 52] |
| 9.52 | 88% | 8.39 | 98% |  |  | N#Cc1ccc(COc2nc(N3CCC4(CC3)CC4c3nc4ccc(C(=O)O)cc4n3CC3CCO3)c(F)cc2F)c(F)c1 (single isomer, unassigned; ent-1) [Example 57] |
| 7.07 |  | 5.77 | 100% | 92% |  | COCCn1c(C2CC23CCN(c2ccnc(OCc4ccc(Cl)cc4F)n2)CC3)nc2ccc(C(=O)O)cc21 (single isomer, unassigned; ent-2) [Example 47, Ammonium 2-(6-{2-[(4-chloro-2-fluorobenzyl)oxy]pyrimidin-4-yl}-6-azaspiro[2.5]oct-1-yl)-1-(2-methoxyethyl)-1H-benzimidazole-6-carboxylate, ENT-2] |
